According to patent publication US8940724B2, “Quinoline derivitives and their uses” (Amgen Inc., priority 2009, dated 2015):

The molecules below were run against T1, PI3Kδ (Homo sapiens, UniProt O00329) (assay: PI3Kδ Alphascreen assay).
T1 construct: Full length p110 subunits of PI3k α, β and δ, N-terminally labeled with polyHis tag; polyHis (N); made in house; host or cells: Sf9 insect cells (baculovirus)
Format: biochemical

T1 sequence (O00329 whole entry): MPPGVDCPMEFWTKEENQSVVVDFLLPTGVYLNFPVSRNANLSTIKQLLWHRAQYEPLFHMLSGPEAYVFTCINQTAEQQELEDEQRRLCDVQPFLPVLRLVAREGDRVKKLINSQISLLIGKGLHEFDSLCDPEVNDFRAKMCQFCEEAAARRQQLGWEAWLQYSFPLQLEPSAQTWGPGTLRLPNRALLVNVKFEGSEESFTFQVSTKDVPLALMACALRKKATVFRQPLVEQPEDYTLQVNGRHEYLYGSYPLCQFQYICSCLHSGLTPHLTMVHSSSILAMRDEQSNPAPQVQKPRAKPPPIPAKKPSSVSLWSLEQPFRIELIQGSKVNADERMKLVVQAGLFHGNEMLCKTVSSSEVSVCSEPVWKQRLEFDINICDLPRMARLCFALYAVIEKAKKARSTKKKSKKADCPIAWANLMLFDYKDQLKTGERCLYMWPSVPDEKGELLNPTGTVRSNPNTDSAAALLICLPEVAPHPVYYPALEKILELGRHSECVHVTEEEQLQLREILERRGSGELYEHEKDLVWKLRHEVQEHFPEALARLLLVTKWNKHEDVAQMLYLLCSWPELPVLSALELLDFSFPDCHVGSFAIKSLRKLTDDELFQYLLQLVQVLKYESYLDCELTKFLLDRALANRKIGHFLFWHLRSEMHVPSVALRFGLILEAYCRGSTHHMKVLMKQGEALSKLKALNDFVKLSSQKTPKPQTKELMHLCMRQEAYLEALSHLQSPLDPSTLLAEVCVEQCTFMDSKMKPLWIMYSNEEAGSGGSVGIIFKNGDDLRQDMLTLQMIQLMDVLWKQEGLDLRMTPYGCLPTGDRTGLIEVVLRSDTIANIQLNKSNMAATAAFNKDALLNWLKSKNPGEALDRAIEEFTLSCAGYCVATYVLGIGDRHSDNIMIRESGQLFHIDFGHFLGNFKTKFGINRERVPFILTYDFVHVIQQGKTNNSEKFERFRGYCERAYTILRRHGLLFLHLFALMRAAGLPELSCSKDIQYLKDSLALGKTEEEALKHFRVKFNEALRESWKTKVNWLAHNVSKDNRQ
T1 sequence (P27986 whole entry partner): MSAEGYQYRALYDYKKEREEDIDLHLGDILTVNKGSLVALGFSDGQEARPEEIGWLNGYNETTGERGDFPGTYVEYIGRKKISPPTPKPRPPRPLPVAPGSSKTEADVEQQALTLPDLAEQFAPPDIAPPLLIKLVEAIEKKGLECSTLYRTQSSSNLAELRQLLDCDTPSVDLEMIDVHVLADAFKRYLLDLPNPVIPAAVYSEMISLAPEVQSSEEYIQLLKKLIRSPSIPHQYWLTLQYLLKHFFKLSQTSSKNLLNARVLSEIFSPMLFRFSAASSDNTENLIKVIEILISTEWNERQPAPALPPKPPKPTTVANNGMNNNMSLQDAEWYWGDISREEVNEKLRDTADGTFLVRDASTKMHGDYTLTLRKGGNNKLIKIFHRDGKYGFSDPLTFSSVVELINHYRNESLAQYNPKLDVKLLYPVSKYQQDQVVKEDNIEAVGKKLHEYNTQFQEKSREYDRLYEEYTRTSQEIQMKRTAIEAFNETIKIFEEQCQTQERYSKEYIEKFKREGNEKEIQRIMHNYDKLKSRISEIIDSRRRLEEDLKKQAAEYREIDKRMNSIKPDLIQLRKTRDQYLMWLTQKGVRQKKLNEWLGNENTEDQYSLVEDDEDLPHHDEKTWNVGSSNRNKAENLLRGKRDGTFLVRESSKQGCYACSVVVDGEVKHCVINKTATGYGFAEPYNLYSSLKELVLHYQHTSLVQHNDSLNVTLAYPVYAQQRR

Q: For `Cc1c(N2CCN(C)CC2)nc2cc(F)cc(F)c2c1Nc1cncc(N2CCOCC2)c1` [5,7-difluoro-3-methyl-2-(4-methyl-1-piperazinyl)-N-(5-(4-morpholinyl)-3-pyridinyl)-4-quinolinamine], which Ki is on record?
A: 35.2 nM

Q: Which Ki does the source give for `Cc1ccnc(-c2nc3cc(F)cc(F)c3c(Nc3cc(N4CCOCC4)ccc3S(C)(=O)=O)c2C)c1` [5,7-difluoro-3-methyl-2-(4-methyl-2-pyridinyl)-N-(2-(methylsulfonyl)-5-(4-morpholinyl)phenyl)-4-quinolinamine] here?
A: 0.821 nM

Q: `Cc1ccnc(-c2nc3cc(F)cc(F)c3c(Nc3cncc(N4CCOCC4)c3)c2C)c1` [5,7-difluoro-3-methyl-2-(4-methyl-2-pyridinyl)-N-(5-(4-morpholinyl)-3-pyridinyl)-4-quinolinamine] was tested. Which Ki did it give?
A: 19.2 nM

Q: With `Cc1c(N2CCOCC2)nc2cc(F)cc(F)c2c1Nc1cncc(N2CCOCC2)c1` [5,7-difluoro-3-methyl-2-(4-morpholinyl)-N-(5-(4-morpholinyl)-3-pyridinyl)-4-quinolinamine] as the molecule, how does the Ki read?
A: 55.7 nM

Q: `Cc1ccc(S(C)(=O)=O)c(-c2nc3cc(F)cc(F)c3c(Nc3cncc(N4CCOCC4)c3)c2C)c1` [5,7-difluoro-3-methyl-2-(5-methyl-2-(methylsulfonyl)phenyl)-N-(5-(4-morpholinyl)-3-pyridinyl)-4-quinolinamine] was tested. Which Ki did it give?
A: 1.35 nM

Q: `Cc1ccc(-c2nc3cc(F)cc(F)c3c(Nc3cncc(N4CCOCC4)c3)c2C)nc1` [5,7-difluoro-3-methyl-2-(5-methyl-2-pyridinyl)-N-(5-(4-morpholinyl)-3-pyridinyl)-4-quinolinamine] was tested. Which Ki did it give?
A: 19.1 nM

Q: Which Ki does the source give for `Cc1ccc(-c2nc3cc(F)cc(F)c3c(Nc3cncc(N4CCOCC4)c3)c2C)cn1` [5,7-difluoro-3-methyl-2-(6-methyl-3-pyridinyl)-N-(5-(4-morpholinyl)-3-pyridinyl)-4-quinolinamine] here?
A: 19.1 nM

Q: `Cc1c(N2CCNC[C@H]2C)nc2cc(F)cc(F)c2c1Nc1cncc(N2CCOCC2)c1` [5,7-difluoro-3-methyl-2-((2R)-2-methyl-1-piperazinyl)-N-(5-(4-morpholinyl)-3-pyridinyl)-4-quinolinamine] was tested. Which Ki did it give?
A: 15.9 nM

Q: `Cc1c(N2CCNC[C@@H]2C)nc2cc(F)cc(F)c2c1Nc1cncc(N2CCOCC2)c1` [5,7-difluoro-3-methyl-2-((2S)-2-methyl-1-piperazinyl)-N-(5-(4-morpholinyl)-3-pyridinyl)-4-quinolinamine] was tested. Which Ki did it give?
A: 78.1 nM

Q: With `Cc1c(N2CCN[C@H](C)C2)nc2cc(F)cc(F)c2c1Nc1cncc(N2CCOCC2)c1` [5,7-difluoro-3-methyl-2-((3R)-3-methyl-1-piperazinyl)-N-(5-(4-morpholinyl)-3-pyridinyl)-4-quinolinamine] as the molecule, how does the Ki read?
A: 44.3 nM

Q: Which Ki does the source give for `Cc1c(N2CCN(S(C)(=O)=O)[C@H](C)C2)nc2cc(F)cc(F)c2c1Nc1cncc(N2CCOCC2)c1` [5,7-difluoro-3-methyl-2-((3R)-3-methyl-4-(methylsulfonyl)-1-piperazinyl)-N-(5-(4-morpholinyl)-3-pyridinyl)-4-quinolinamine] here?
A: 244 nM

Q: With `Cc1c(N2CCN[C@@H](C)C2)nc2cc(F)cc(F)c2c1Nc1cncc(N2CCOCC2)c1` [5,7-difluoro-3-methyl-2-((3S)-3-methyl-1-piperazinyl)-N-(5-(4-morpholinyl)-3-pyridinyl)-4-quinolinamine] as the molecule, how does the Ki read?
A: 20.6 nM

Q: For `Cc1c(-c2ccccn2)nc2cc(F)cc(F)c2c1Oc1cncc(N2CCOCC2)c1` [5,7-difluoro-3-methyl-4-((5-(4-morpholinyl)-3-pyridinyl)oxy)-2-(2-pyridinyl)quinoline], which Ki is on record?
A: 51.9 nM

Q: With `Cc1c(-c2ccccn2)nc2cc(F)cc(F)c2c1Nc1cc(N2CCOCC2)cnc1-c1ccc(S(C)(=O)=O)cc1` [5,7-difluoro-3-methyl-N-(2-(4-(methylsulfonyl)phenyl)-5-(4-morpholinyl)-3-pyridinyl)-2-(2-pyridinyl)-4-quinolinamine] as the molecule, how does the Ki read?
A: 2.15 nM

Q: For `Cc1c(-c2ccccc2S(C)(=O)=O)nc2cc(F)cc(F)c2c1Nc1cc(N2CCOCC2)ccc1S(C)(=O)=O` [5,7-difluoro-3-methyl-N-(2-(methylsulfonyl)-5-(4-morpholinyl)-phenyl)-2-(2-(methylsulfonyl)phenyl)-4-quinolinamine], which Ki is on record?
A: 0.827 nM

Q: For `Cc1c(N2CCNCC2)nc2cc(F)cc(F)c2c1Nc1cncc(N2CCOCC2)c1` [5,7-difluoro-3-methyl-N-(5-(4-morpholinyl)-3-pyridinyl)-2-(1-piperazinyl)-4-quinolinamine], which Ki is on record?
A: 87.1 nM

Q: Which Ki does the source give for `Cc1c(-c2ccnc(N3CCCC3)c2)nc2cc(F)cc(F)c2c1Nc1cncc(N2CCOCC2)c1` [5,7-difluoro-3-methyl-N-(5-(4-morpholinyl)-3-pyridinyl)-2-(2-(1-pyrrolidinyl)-4-pyridinyl)-4-quinolinamine] here?
A: 315 nM

Q: With `Cc1c(N2CCN(C(=O)c3cocn3)CC2)nc2cc(F)cc(F)c2c1Nc1cncc(N2CCOCC2)c1` [5,7-difluoro-3-methyl-N-(5-(4-morpholinyl)-3-pyridinyl)-2-(4-(1,3-oxazol-4-ylcarbonyl)-1-piperazinyl)-4-quinolinamine] as the molecule, how does the Ki read?
A: 14.5 nM

Q: With `Cc1c(N2CCN(C(=O)c3cnco3)CC2)nc2cc(F)cc(F)c2c1Nc1cncc(N2CCOCC2)c1` [5,7-difluoro-3-methyl-N-(5-(4-morpholinyl)-3-pyridinyl)-2-(4-(1,3-oxazol-5-ylcarbonyl)-1-piperazinyl)-4-quinolinamine] as the molecule, how does the Ki read?
A: 48 nM

Q: With `Cc1c(N2CCN(CC(F)(F)F)CC2)nc2cc(F)cc(F)c2c1Nc1cncc(N2CCOCC2)c1` [5,7-difluoro-3-methyl-N-(5-(4-morpholinyl)-3-pyridinyl)-2-(4-(2,2,2-trifluoroethyl)-1-piperazinyl)-4-quinolinamine] as the molecule, how does the Ki read?
A: 40.7 nM

Q: How did the Ki turn out when `Cc1c(N2CCN(C(=O)c3ncccn3)CC2)nc2cc(F)cc(F)c2c1Nc1cncc(N2CCOCC2)c1` [5,7-difluoro-3-methyl-N-(5-(4-morpholinyl)-3-pyridinyl)-2-(4-(2-pyrimidinylcarbonyl)-1-piperazinyl)-4-quinolinamine] was run?
A: 645 nM

Q: How did the Ki turn out when `Cc1c(N2CCN(c3cccnc3)CC2)nc2cc(F)cc(F)c2c1Nc1cncc(N2CCOCC2)c1` [5,7-difluoro-3-methyl-N-(5-(4-morpholinyl)-3-pyridinyl)-2-(4-(3-pyridinyl)-1-piperazinyl)-4-quinolinamine] was run?
A: 11.8 nM

Q: How did the Ki turn out when `Cc1c(N2CCN(C(=O)c3cccnc3)CC2)nc2cc(F)cc(F)c2c1Nc1cncc(N2CCOCC2)c1` [5,7-difluoro-3-methyl-N-(5-(4-morpholinyl)-3-pyridinyl)-2-(4-(3-pyridinylcarbonyl)-1-piperazinyl)-4-quinolinamine] was run?
A: 343 nM

Q: With `Cc1c(N2CCN(S(=O)(=O)c3cccnc3)CC2)nc2cc(F)cc(F)c2c1Nc1cncc(N2CCOCC2)c1` [5,7-difluoro-3-methyl-N-(5-(4-morpholinyl)-3-pyridinyl)-2-(4-(3-pyridinylsulfonyl)-1-piperazinyl)-4-quinolinamine] as the molecule, how does the Ki read?
A: 67.5 nM

Q: Which Ki does the source give for `Cc1c(N2CCN(C(=O)c3ccncn3)CC2)nc2cc(F)cc(F)c2c1Nc1cncc(N2CCOCC2)c1` [5,7-difluoro-3-methyl-N-(5-(4-morpholinyl)-3-pyridinyl)-2-(4-(4-pyrimidinylcarbonyl)-1-piperazinyl)-4-quinolinamine] here?
A: 99.1 nM

Q: For `Cc1c(N2CCN(C(=O)c3ccccc3)CC2)nc2cc(F)cc(F)c2c1Nc1cncc(N2CCOCC2)c1` [5,7-difluoro-3-methyl-N-(5-(4-morpholinyl)-3-pyridinyl)-2-(4-(phenylcarbonyl)-1-piperazinyl)-4-quinolinamine], which Ki is on record?
A: 87.9 nM

Q: How did the Ki turn out when `Cc1c(N2CCN(S(=O)(=O)c3ccccc3)CC2)nc2cc(F)cc(F)c2c1Nc1cncc(N2CCOCC2)c1` [5,7-difluoro-3-methyl-N-(5-(4-morpholinyl)-3-pyridinyl)-2-(4-(phenylsulfonyl)-1-piperazinyl)-4-quinolinamine] was run?
A: 33.4 nM

Q: For `Cc1c(N2CCN(C(=O)C3CCOCC3)CC2)nc2cc(F)cc(F)c2c1Nc1cncc(N2CCOCC2)c1` [5,7-difluoro-3-methyl-N-(5-(4-morpholinyl)-3-pyridinyl)-2-(4-(tetrahydro-2H-pyran-4-ylcarbonyl)-1-piperazinyl)-4-quinolinamine], which Ki is on record?
A: 55.7 nM

Q: `Cc1c(N2CCN(c3ccccc3)CC2)nc2cc(F)cc(F)c2c1Nc1cncc(N2CCOCC2)c1` [5,7-difluoro-3-methyl-N-(5-(4-morpholinyl)-3-pyridinyl)-2-(4-phenyl-1-piperazinyl)-4-quinolinamine] was tested. Which Ki did it give?
A: 78.1 nM

Q: How did the Ki turn out when `CCCN1CCN(c2nc3cc(F)cc(F)c3c(Nc3cncc(N4CCOCC4)c3)c2C)CC1` [5,7-difluoro-3-methyl-N-(5-(4-morpholinyl)-3-pyridinyl)-2-(4-propyl-1-piperazinyl)-4-quinolinamine] was run?
A: 13.5 nM

Q: Which Ki does the source give for `Cc1c(-c2ccc(N3CCNCC3)nc2)nc2cc(F)cc(F)c2c1Nc1cncc(N2CCOCC2)c1` [5,7-difluoro-3-methyl-N-(5-(4-morpholinyl)-3-pyridinyl)-2-(6-(1-piperazinyl)-3-pyridinyl)-4-quinolinamine] here?
A: 432 nM

Q: `Cc1c(-c2ccc(N3CCCCC3)nc2)nc2cc(F)cc(F)c2c1Nc1cncc(N2CCOCC2)c1` [5,7-difluoro-3-methyl-N-(5-(4-morpholinyl)-3-pyridinyl)-2-(6-(1-piperidinyl)-3-pyridinyl)-4-quinolinamine] was tested. Which Ki did it give?
A: 517 nM

Q: Which Ki does the source give for `Cc1c(-c2ccc(N3CCOCC3)nc2)nc2cc(F)cc(F)c2c1Nc1cncc(N2CCOCC2)c1` [5,7-difluoro-3-methyl-N-(5-(4-morpholinyl)-3-pyridinyl)-2-(6-(4-morpholinyl)-3-pyridinyl)-4-quinolinamine] here?
A: 444 nM

Q: `Cc1c(N2CCN(CC(F)(F)F)CC2)nc2cc(F)cc(F)c2c1N(CC(F)(F)F)c1cncc(N2CCOCC2)c1` [5,7-difluoro-3-methyl-N-(5-(4-morpholinyl)-3-pyridinyl)-N-(2,2,2-trifluoroethyl)-2-(4-(2,2,2-trifluoroethyl)-1-piperazinyl)-4-quinolinamine] was tested. Which Ki did it give?
A: 493 nM

Q: `Cc1c(-c2cccnc2)nc2cc(F)cc(F)c2c1Nc1cc(N2CCOC[C@H]2C)cnc1N1CCOCC1` [5,7-difluoro-3-methyl-N-(5-((3R)-3-methyl-4-morpholinyl)-2-(4-morpholinyl)-3-pyridinyl)-2-(3-pyridinyl)-4-quinolinamine] was tested. Which Ki did it give?
A: 69.5 nM

Q: Which Ki does the source give for `Cc1c(-c2cccnc2)nc2cc(F)cc(F)c2c1Nc1cc(N2CCOC[C@@H]2C)cnc1N1CCOCC1` [5,7-difluoro-3-methyl-N-(5-((3S)-3-methyl-4-morpholinyl)-2-(4-morpholinyl)-3-pyridinyl)-2-(3-pyridinyl)-4-quinolinamine] here?
A: 21.4 nM
